Measurements taken from ChEMBL document CHEMBL3352800, “Structure-guided discovery of 1,3,5-triazine-pyrazole conjugates as antibacterial and antibiofilm agent against pathogens causing human diseases with favorable metabolic fate” (2014).
In brackets after ≈: the same amount, converted by molar mass.

Tests used:
Assay type in all cases: functional
Proteus vulgaris = assay: Antibacterial activity against Proteus vulgaris NCIM-2027 after 24 hrs by broth dilution method; details: NCIM-2027, 24 h
Pseudomonas aeruginosa = assay: Antibacterial activity against Pseudomonas aeruginosa NCIM-2036 after 24 hrs by broth dilution method; details: NCIM-2036, 24 h
Staphylococcus aureus [1] = assay: Antibacterial activity against Staphylococcus aureus NCIM-2079 after 24 hrs by broth dilution method; details: NCIM-2079, 24 h
Bacillus subtilis = assay: Antibacterial activity against Bacillus subtilis NCIM-2063 after 24 hrs by broth dilution method; details: NCIM-2063, 24 h
Escherichia coli = assay: Antibacterial activity against Escherichia coli NCIM-2065 after 24 hrs by broth dilution method; details: NCIM-2065, 24 h
Staphylococcus aureus [2] = assay: Antibiofilm activity against Staphylococcus aureus NCIM-2079 after 16 hrs
Bacillus cereus = assay: Antibacterial activity against Bacillus cereus NCIM-2156 after 24 hrs by broth dilution method; details: NCIM-2156, 24 h

Row | MIC (Proteus vulgaris) [µg/mL] | MIC (Pseudomonas aeruginosa) [µg/mL] | MIC (Staphylococcus aureus [1]) [µg/mL] | MIC (Bacillus subtilis) [µg/mL] | MIC (Escherichia coli) [µg/mL] | MIC (Bacillus cereus) [µg/mL] | SMILES | Activity (Staphylococcus aureus [2]) [µg/mL]
1 | 62.5 (≈ 95.2 µM) | 62.5 (≈ 95.2 µM) | 125 (≈ 190 µM) | 31.2 (≈ 47.6 µM) | 62.5 (≈ 95.2 µM) | 125 (≈ 190 µM) | O=[N+]([O-])c1ccc(C2CC(c3ccccc3)=NN2C(=S)Nc2nc(Nc3ccc(Cl)cc3)nc(Nc3ccc(Cl)cc3)n2)cc1 (configuration not stated) | 125
2 | 15.6 (≈ 24.2 µM) | 7.81 (≈ 12.1 µM) | 15.6 (≈ 24.2 µM) | 3.91 (≈ 6.05 µM) | 7.81 (≈ 12.1 µM) | 15.6 (≈ 24.2 µM) | S=C(Nc1nc(Nc2ccc(Cl)cc2)nc(Nc2ccc(Cl)cc2)n1)N1N=C(c2ccccc2)CC1c1ccc(Cl)cc1 (configuration not stated) | 62.5
3 | 15.6 (≈ 27 µM) | 15.6 (≈ 27 µM) | 7.81 (≈ 13.5 µM) | 7.81 (≈ 13.5 µM) | 15.6 (≈ 27 µM) | 3.91 (≈ 6.76 µM) | Fc1ccc(Nc2nc(NC(=S)N3N=C(c4ccccc4)CC3c3ccccc3)nc(Nc3ccc(F)cc3)n2)cc1 (configuration not stated) | 15.62
4 | 15.6 (≈ 25.5 µM) | 31.2 (≈ 51.1 µM) | 15.6 (≈ 25.5 µM) | 7.81 (≈ 12.8 µM) | 31.2 (≈ 51.1 µM) | 31.2 (≈ 51.1 µM) | S=C(Nc1nc(Nc2ccc(Cl)cc2)nc(Nc2ccc(Cl)cc2)n1)N1N=C(c2ccccc2)CC1c1ccccc1 (configuration not stated) | 31.25
5 | 7.81 (≈ 17.2 µM) | 3.91 (≈ 8.62 µM) | 7.81 (≈ 17.2 µM) | 1.95 (≈ 4.3 µM) | 3.91 (≈ 8.62 µM) | 3.91 (≈ 8.62 µM) | C=CC1=C(C(=O)O)N2C(=O)[C@@H](NC(=O)/C(=N\OCC(=O)O)c3csc(N)n3)[C@H]2SC1 [CEFIXIME] | 
6 |  |  |  |  |  |  | CN[C@H](CC(C)C)C(=O)N[C@H]1C(=O)N[C@@H](CC(N)=O)C(=O)N[C@H]2C(=O)N[C@H]3C(=O)N[C@H](C(=O)N[C@H](C(=O)O)c4cc(O)cc(O)c4-c4cc3ccc4O)[C@H](O)c3ccc(c(Cl)c3)Oc3cc2cc(c3O[C@@H]2O[C@H](CO)[C@@H](O)[C@H](O)[C@H]2O[C@H]2C[C@](C)(N)[C@H](O)[C@H](C)O2)Oc2ccc(cc2Cl)[C@H]1O [VANCOMYCIN] | 3.91
7 | 62.5 (≈ 100 µM) | 31.2 (≈ 50.1 µM) | 31.2 (≈ 50.1 µM) | 15.6 (≈ 25 µM) | 31.2 (≈ 50.1 µM) | 31.2 (≈ 50.1 µM) | O=[N+]([O-])c1ccc(C2CC(c3ccccc3)=NN2C(=S)Nc2nc(Nc3ccc(F)cc3)nc(Nc3ccc(F)cc3)n2)cc1 (configuration not stated) | 62.5
8 | 7.81 (≈ 12.3 µM) | 7.81 (≈ 12.3 µM) | 7.81 (≈ 12.3 µM) | 15.6 (≈ 24.7 µM) | 7.81 (≈ 12.3 µM) | 7.81 (≈ 12.3 µM) | O=[N+]([O-])c1cccc(Nc2nc(NC(=S)N3N=C(c4ccccc4)CC3c3ccccc3)nc(Nc3cccc([N+](=O)[O-])c3)n2)c1 (configuration not stated) | 31.25
9 | 62.5 (≈ 92.2 µM) | 62.5 (≈ 92.2 µM) | 31.2 (≈ 46.1 µM) | 31.2 (≈ 46.1 µM) | 62.5 (≈ 92.2 µM) | 125 (≈ 184 µM) | O=[N+]([O-])c1ccc(C2CC(c3ccccc3)=NN2C(=S)Nc2nc(Nc3cccc([N+](=O)[O-])c3)nc(Nc3cccc([N+](=O)[O-])c3)n2)cc1 (configuration not stated) | 62.5
10 | 31.2 (≈ 50.1 µM) | 31.2 (≈ 50.1 µM) | 31.2 (≈ 50.1 µM) | 31.2 (≈ 50.1 µM) | 31.2 (≈ 50.1 µM) | 62.5 (≈ 100 µM) | O=[N+]([O-])c1ccccc1C1CC(c2ccccc2)=NN1C(=S)Nc1nc(Nc2ccc(F)cc2)nc(Nc2ccc(F)cc2)n1 (configuration not stated) | 31.25
11 | 15.6 (≈ 23.4 µM) | 31.2 (≈ 46.8 µM) | 15.6 (≈ 23.4 µM) | 7.81 (≈ 11.7 µM) | 31.2 (≈ 46.8 µM) | 7.81 (≈ 11.7 µM) | O=[N+]([O-])c1cccc(Nc2nc(NC(=S)N3N=C(c4ccccc4)CC3c3ccc(Cl)cc3)nc(Nc3cccc([N+](=O)[O-])c3)n2)c1 (configuration not stated) | 15.62
12 | 62.5 (≈ 92.2 µM) | 125 (≈ 184 µM) | 15.6 (≈ 23 µM) | 62.5 (≈ 92.2 µM) | 125 (≈ 184 µM) | 62.5 (≈ 92.2 µM) | O=[N+]([O-])c1cccc(Nc2nc(NC(=S)N3N=C(c4ccccc4)CC3c3ccccc3[N+](=O)[O-])nc(Nc3cccc([N+](=O)[O-])c3)n2)c1 (configuration not stated) | 125
13 | 62.5 (≈ 95.2 µM) | 125 (≈ 190 µM) | 62.5 (≈ 95.2 µM) | 15.6 (≈ 23.8 µM) | 125 (≈ 190 µM) | 31.2 (≈ 47.6 µM) | O=[N+]([O-])c1ccccc1C1CC(c2ccccc2)=NN1C(=S)Nc1nc(Nc2ccc(Cl)cc2)nc(Nc2ccc(Cl)cc2)n1 (configuration not stated) | 125
14 | 31.2 (≈ 46.8 µM) | 15.6 (≈ 23.4 µM) | 15.6 (≈ 23.4 µM) | 15.6 (≈ 23.4 µM) | 15.6 (≈ 23.4 µM) | 15.6 (≈ 23.4 µM) | O=[N+]([O-])c1cccc(Nc2nc(NC(=S)N3N=C(c4ccccc4)CC3c3ccccc3Cl)nc(Nc3cccc([N+](=O)[O-])c3)n2)c1 (configuration not stated) | 62.5
15 | 15.6 (≈ 25.5 µM) | 7.81 (≈ 12.7 µM) | 31.2 (≈ 51 µM) | 3.91 (≈ 6.38 µM) | 7.81 (≈ 12.7 µM) | 7.81 (≈ 12.7 µM) | Fc1ccc(Nc2nc(NC(=S)N3N=C(c4ccccc4)CC3c3ccc(Cl)cc3)nc(Nc3ccc(F)cc3)n2)cc1 (configuration not stated) | 31.25
16 | 15.6 (≈ 24.2 µM) | 15.6 (≈ 24.2 µM) | 15.6 (≈ 24.2 µM) | 3.91 (≈ 6.05 µM) | 15.6 (≈ 24.2 µM) | 62.5 (≈ 96.7 µM) | S=C(Nc1nc(Nc2ccc(Cl)cc2)nc(Nc2ccc(Cl)cc2)n1)N1N=C(c2ccccc2)CC1c1ccccc1Cl (configuration not stated) | 31.25
17 | 7.81 (≈ 12.7 µM) | 15.6 (≈ 25.5 µM) | 15.6 (≈ 25.5 µM) | 7.81 (≈ 12.7 µM) | 15.6 (≈ 25.5 µM) | 15.6 (≈ 25.5 µM) | Fc1ccc(Nc2nc(NC(=S)N3N=C(c4ccccc4)CC3c3ccccc3Cl)nc(Nc3ccc(F)cc3)n2)cc1 (configuration not stated) | 62.5
